Results on ten molecules are retold here after patent US20170008928A1, “NOVEL PEPTIDES AND PEPTIDE DERIVATIVES AND USES THEREOF” (Novo Nordisk A/S, priority 2015, published 2017).

Assay [1] concerns the target T1, human cholecystokinin-2 receptor (CCK-2R) (Homo sapiens, UniProt P32239).
T1 construct: host or cells: 1321-N1 cells (plasma membranes prepared by Evotec AG Hamburg)
T1 sequence (P32239 1-447): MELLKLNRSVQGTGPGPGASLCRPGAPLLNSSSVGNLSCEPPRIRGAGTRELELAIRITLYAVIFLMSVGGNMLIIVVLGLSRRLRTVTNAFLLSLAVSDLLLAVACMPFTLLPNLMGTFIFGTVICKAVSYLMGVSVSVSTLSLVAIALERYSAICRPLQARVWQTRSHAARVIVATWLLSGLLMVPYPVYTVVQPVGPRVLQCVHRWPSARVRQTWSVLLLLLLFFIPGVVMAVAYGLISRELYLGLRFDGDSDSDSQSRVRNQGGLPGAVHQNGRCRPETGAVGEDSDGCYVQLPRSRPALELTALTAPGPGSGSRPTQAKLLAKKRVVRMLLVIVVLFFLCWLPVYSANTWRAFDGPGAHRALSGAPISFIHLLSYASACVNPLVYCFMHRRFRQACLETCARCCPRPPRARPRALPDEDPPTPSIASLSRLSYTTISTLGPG
The assay is described as follows: In vitro receptor binding to CCK-2R, SPA displacement of [125I]-CCK-8s from plasma membranes. On the procedure:
The in vitro binding affinity is a measure of the strength of attraction between a receptor and its ligand.
Displacement of radio ligand was measured as reduction in light emission from SPA beads.
The cells used in these assays were 1321-N1 cells stably expressing the CCK-1R or the CCK-2R (Perkin Elmer product numbers ES-530-A and ES-531-A, respectively see www.perkinelmer.com/Catalog/Product/ID/ES-530-A or -ES-531-A, respectively).
The cells were cultured in an incubator (95% RH (relative humidity), 5% (of standard atmospheric pressure) CO2, 37° C.) in cell culture medium (DMEM (Lonza catalogue BE-12-604F/U1), with 10% (v/v) Foetal Calf Serum (FCS, Gibco catalogue 16140-071), 1% (w/w) Sodium pyruvate (Gibco catalogue 11360-039), 500 μg/ml Geneticin® (G418) (Gibco catalogue 10131-027), 25 μg/ml Zeocin™ (Invitrogen catalogue R250-05), 1% (w/w) Pen/Strep (Gibco catalogue 15140-122)).
Plasma membranes were prepared by Evotec AG Hamburg by use of the ParrBomb (#4635, Parr Instrument Company). Cells were lysed with a lysis buffer (50 mM Tris, 2.5 mM EDTA, pH7) with added protease inhibitors (Complete Proteaseinhibitors EDTA-free (#05056489001, Roche), 1 tablet per 50 mL lysis buffer). The membrane fraction was separated by centrifugation. First, the cell lysate was centrifuged at 1000×g for 10 minutes at 4° C. The pellet was discarded and the supernatant was then centrifuged at 100.000×g for 30 minutes at 4° C. The supernatant was discarded and the pellet was re-suspended in 1 ml/5×10^8 cells ice cold membrane buffer (50 mM Tris, 320 mM Sucrose and Complete Proteaseinhibitors EDTA-free (#05056489001, Roche); pH7.4) and homogenised with dounce homogeniser. The protein concentration was determined using the Pierce™ BCA Protein Assay Kit according to kit manual, and the membrane preparation was adjust to the desired protein concentration with membrane buffer and aliquoted into pre-cooled tubes, snap-frozen in liquid nitrogen, and stored at −80° C.
CCK receptor binding assays were performed in 96-well Optiplates (Cat #6005290, PerkinElmer, Waltham, Mass., USA) in a total volume of 200 μl per well. CCK derivatives in 80% DMSO stock solutions of 800 μM were serially diluted […] in assay buffer (50 mM Tris/HCl, 4.5 mM MgCl2, […], 0.02% Tween 20, 0.25% ovalbumin, 0.1% pluronic F-68, pH 7.4) to final assay concentrations ranging from 10^−5 M (ten μM) to 10^−12 M (one pM).
Fifty μl of reference or test compounds were added to the Optiplates (using technical duplicates, i.e. two wells of each sample, one data point being the average of two wells), followed by addition of 150 μl of the mixture of SPA bead, radio ligand, and plasma membrane. The plates were sealed and incubated in the dark at +22° C. for 2 hours on a IKA MTS plate shaker (IKA-Werke D-79219 Staufen) set at 300 rpm and thereafter centrifuged at 1500 rpm for 10 minutes in a Heraeus Multifuge 3s centrifuge. SPA bead light emission was measured in a TopCount NXT (PerkinElmer) for 2 min/well after a delay of 60 min.
As a measure of compound affinity, calculations were performed in order to determine the half maximal inhibitory concentration (the IC50 value).
The data from the TopCounter were given as counts per minute (CPM). The CPM was plotted as a function of the concentration of compound. Dose-response curves were obtained, and IC50 values were calculated, by a nonlinear three-parameter logistic equation (log(agonist) vs response) with hillslope=−1, and shared top and bottom using the software programme GraphPad Prism v 6.0 (Graph Pad software, La Jolla, Calif., USA). The highest dose tested was 10^−5 M (1×10^7 pM).
The preference of a specific compound for the CCK-1 receptor, or the CCK-1R selectivity, may be defined as IC50 (CCK-2R)/IC50 (CCK-1R).
A minimum of three biological replicates was measured for each test compound on separate assay plates.
A general note: Loss of bound radioactivity is the signal in a displacement assay; it reports binding, not function.

The target in assay [2] is T1, human cholecystokinin-2 receptor (CCK-2R). Nature of the assay: In vitro potency on CCK-2R, whole cell functional assay (IP1 accumulation, IP-One HTRF). It counts as cell-based.
[3] abbreviates: displacement of [125I]-CCK-8s, plasma membranes of 1321-N1 cells expressing CCK-2R, highest dose tested 1×10^7 pM, read-out: IC50 (CCK-2R).
Where [4] appears, read: 1321-N1 cells stably expressing CCK-2R, IP1 accumulation, highest dose tested 1×10^6 pM, read-out: EC50 (CCK-2R).

SMILES strings stand for the structures. Where two headings read alike, the source gives them in different places. Starred links: 1 amine or outer side, 2 acyl side, 3 side chain; linkers in the order of their positions; H or OH if unused. Non-standard residues stand in square brackets, D forms with d. Residues, ends and D or L forms follow the SMILES beside them. *: point of attachment. Phe(4-CH2SO3H) = N[C@@H](Cc1ccc(CS(=O)(=O)O)cc1)C(=O)O; sY = N[C@@H](Cc1ccc(OS(=O)(=O)O)cc1)C(=O)O; C18 diacid = O=C(O)CCCCCCCCCCCCCCCCC(=O)*; γGlu = O=C(O)[C@H](CCC(=O)[*:2])N[*:1]; βAsp = O=C(O)[C@H](CC(=O)[*:2])N[*:1]; NMeF = CN[C@@H](Cc1ccccc1)C(=O)O; dNMeD = CN[C@H](CC(=O)O)C(=O)O; Nle = CCCC[C@H](N)C(=O)O; AEEA = NCCOCCOCC(=O)O Bounds are passed on as bounds.

One may read the IC50 as the concentration at which inhibition is half-maximal. One may read the EC50 as the concentration needed to bring the measured effect to its halfway point. For `CCCC[C@H](NC(=O)[C@H](Cc1c[nH]c2ccccc12)NC(=O)CNC(=O)[C@H](CC(C)C)NC(=O)[C@H](Cc1ccc(OS(=O)(=O)O)cc1)NC(=O)[C@H](CC(=O)O)NC(=O)COCCOCCNC(=O)COCCOCCNC(=O)COCCOCCNC(=O)COCCOCCNC(=O)CC[C@H](NC(=O)CCCCCCCCCCCCCCCCC(=O)O)C(=O)O)C(=O)N(C)[C@H](CC(=O)O)C(=O)N(C)[C@@H](Cc1ccccc1)C(N)=O` [Example 31, 2-[2-[2-[[2-[2-[2-[[2-[2-[2-[[2-[2-[2-[[(4S)-4-Carboxy-4-(17-carboxyheptadecanoylamino)butanoyl]amino]ethoxy]ethoxy]acetyl]amino]ethoxy]ethoxy]acetyl]amino]ethoxy]ethoxy]acetyl]amino]ethoxy]ethoxy]acetyl-Asp-sTyr-Leu-Gly-Trp-Nle-DMeAsp-MePhe-amide], the IC50 in assay [1] (setting [3]) was 480 nM. Further, in assay [2] (setting [4]), the EC50 is 110 nM.
In the same order, the values of `CCCC[C@H](NC(=O)[C@H](Cc1ccc(CS(=O)(=O)O)cc1)NC(=O)C[C@H](NC(=O)COCCOCCNC(=O)COCCOCCNC(=O)CC[C@H](NC(=O)CCCCCCCCCCCCCCCCC(=O)O)C(=O)O)C(=O)O)C(=O)NCC(=O)N[C@@H](Cc1c[nH]c2ccccc12)C(=O)N[C@@H](CCCC)C(=O)N(C)[C@H](CC(=O)O)C(=O)N(C)[C@@H](Cc1ccccc1)C(N)=O` [Example 26, 2-[2-[2-[[2-[2-[2-[[(4S)-4-Carboxy-4-(17-carboxyheptadecanoylamino)butanoyl]amino]ethoxy]ethoxy]acetyl]amino]ethoxy]ethoxy]acetyl-bAsp-Phe(4-sulfomethyl)-Nle-Gly-Trp-Nle-DMeAsp-MePhe-amide] ({C18 diacid-γGlu-AEEA-AEEA-βAsp}-[Phe(4-CH2SO3H)][Nle]GW[Nle][dNMeD][NMeF]-NH2) are over 10000 nM and over 1000 nM.
The molecule `CC[C@H](C)[C@H](NC(=O)[C@H](Cc1c[nH]c2ccccc12)NC(=O)CNC(=O)[C@H](CC(C)C)NC(=O)[C@H](Cc1ccc(OS(=O)(=O)O)cc1)NC(=O)[C@@H](N)CC(=O)O)C(=O)N(C)[C@H](CC(=O)O)C(=O)N(C)[C@@H](Cc1ccccc1)C(N)=O` [Example 61, Asp-sTyr-Leu-Gly-Trp-Ile-DMeAsp-MePhe-amide] (H-D[sY]LGWI[dNMeD][NMeF]-NH2) registered an IC50 in assay [1] of 6100 nM. Further, the EC50 in assay [2] is over 1000 nM.
As for `CC(C)C[C@H](NC(=O)[C@H](Cc1ccc(OS(=O)(=O)O)cc1)NC(=O)[C@@H](N)CCC(=O)O)C(=O)NCC(=O)N[C@@H](Cc1c[nH]c2ccccc12)C(=O)N[C@@H](CCC(N)=O)C(=O)N(C)[C@H](CC(=O)O)C(=O)N(C)[C@@H](Cc1ccccc1)C(N)=O` [Example 86, Glu-sTyr-Leu-Gly-Trp-Gln-DMeAsp-MePhe-amide], the IC50 in assay [1] (setting [3]) was over 10000 nM. In assay [2] (setting [4]), the EC50 is over 1000 nM.
For `CCCC[C@H](NC(=O)[C@H](Cc1c[nH]c2ccccc12)NC(=O)CNC(=O)[C@H](Cc1c[nH]cn1)NC(=O)[C@H](Cc1ccc(OS(=O)(=O)O)cc1)NC(=O)[C@@H](N)CC(=O)O)C(=O)N(C)[C@H](CC(=O)O)C(=O)N(C)[C@@H](Cc1ccccc1)C(N)=O` [Example 82, Asp-sTyr-His-Gly-Trp-Nle-DMeAsp-MePhe-amide] (H-D[sY]HGW[Nle][dNMeD][NMeF]-NH2), in assay [1] (setting [3]), the IC50 is over 10000 nM. In assay [2] (setting [4]), the EC50 was over 1000 nM.
With `CCCC[C@H](NC(=O)[C@H](Cc1c[nH]c2ccccc12)NC(=O)CNC(=O)[C@H](CCCCN)NC(=O)[C@H](Cc1ccc(OS(=O)(=O)O)cc1)NC(=O)[C@@H](N)CC(=O)O)C(=O)N(C)[C@H](CC(=O)O)C(=O)N(C)[C@@H](Cc1ccccc1)C(N)=O` [Example 67, Asp-sTyr-Lys-Gly-Trp-Nle-DMeAsp-MePhe-amide] (H-D[sY]KGW[Nle][dNMeD][NMeF]-NH2), the half-maximal inhibitory concentration (IC50) in assay [1] (setting [3]) was over 10000 nM. Further, in assay [2] (setting [4]), the EC50 is over 1000 nM.
For `CC(C)C[C@H](NC(=O)[C@H](Cc1ccc(OS(=O)(=O)O)cc1)NC(=O)[C@@H](N)CCC(=O)O)C(=O)NCC(=O)N[C@@H](Cc1c[nH]c2ccccc12)C(=O)N[C@@H](CCC(N)=O)C(=O)N(C)[C@H](CC(=O)O)C(=O)N[C@@H](Cc1ccccc1)C(N)=O` [Example 85, Glu-sTyr-Leu-Gly-Trp-Gln-DMeAsp-Phe-amide] the same measures were over 10000 nM and over 1000 nM.
On to `CC(C)C[C@H](NC(=O)[C@H](Cc1ccc(OS(=O)(=O)O)cc1)NC(=O)[C@H](CC(=O)O)NC(=O)COCCOCCNC(=O)COCCOCCNC(=O)CC[C@H](NC(=O)CCCCCCCCCCCCCCCCC(=O)O)C(=O)O)C(=O)NCC(=O)N[C@@H](Cc1c[nH]c2ccccc12)C(=O)N[C@@H](CC(C)C)C(=O)N(C)[C@H](CC(=O)O)C(=O)N(C)[C@@H](Cc1ccccc1)C(N)=O` [Example 13, 2-[2-[2-[[2-[2-[2-[[(4S)-4-Carboxy-4-(17-carboxyheptadecanoylamino)butanoyl]amino]ethoxy]ethoxy]acetyl]amino]ethoxy]ethoxy]acetyl-Asp-sTyr-Leu-Gly-Trp-Leu-DMeAsp-MePhe-amide], for which the IC50 in assay [1] came out at 420 nM. For the same molecule, the EC50 in assay [2] amounted to 79 nM.
Turning to `CC(C)C[C@H](NC(=O)[C@H](Cc1ccc(OS(=O)(=O)O)cc1)NC(=O)[C@H](CCC(=O)O)NC(=O)COCCOCCNC(=O)COCCOCCNC(=O)CC[C@H](NC(=O)CCCCCCCCCCCCCCCCC(=O)O)C(=O)O)C(=O)NCC(=O)N[C@@H](Cc1c[nH]c2ccccc12)C(=O)N[C@@H](CCC(N)=O)C(=O)N(C)[C@H](CC(=O)O)C(=O)N[C@@H](Cc1ccccc1)C(N)=O` [Example 41, 2-[2-[2-[[2-[2-[2-[[(4S)-4-Carboxy-4-(17-carboxyheptadecanoylamino)butanoyl]amino]ethoxy]ethoxy]acetyl]amino]ethoxy]ethoxy]acetyl-Glu-sTyr-Leu-Gly-Trp-Gln-DMeAsp-Phe-amide], the IC50 in assay [1] (setting [3]) was over 10000 nM. Besides, the concentration giving a half-maximal response (EC50) in assay [2] (setting [4]) was over 1000 nM.
With `CC(C)C[C@H](NC(=O)[C@H](Cc1ccc(OS(=O)(=O)O)cc1)NC(=O)[C@@H](N)CC(=O)O)C(=O)NCC(=O)N[C@@H](Cc1c[nH]c2ccccc12)C(=O)N1CCC[C@H]1C(=O)N(C)[C@H](CC(=O)O)C(=O)N(C)[C@@H](Cc1ccccc1)C(N)=O` [Example 66, Asp-sTyr-Leu-Gly-Trp-Pro-DMeAsp-MePhe-amide] (H-D[sY]LGWP[dNMeD][NMeF]-NH2), in assay [1], the IC50 was over 10000 nM. The molecule also displayed an EC50 in assay [2] of over 1000 nM.
